Reference: patent US20150274639A1, “METHODS OF USE FOR COMPOSITIONS COMPRISING A BIOCIDAL POLYAMINE” (Curza Global, LLC, priority 2013, published 2015)
Where “and” joins values, the source holds several entries; their conditions need not be identical. Identical values can stand only once.

What was measured:
MRSA = experiment: MIC in CAMHB, 96-well plate (10^5 to 10^2 CFU/mL in 24 hours); assay type: cell-based, methicillin-resistant Staphylococcus aureus; conditions: Staphylococcus aureus, MRSA
Description: (§1) To determine the MIC of polyamine compounds, the protocol described herein was used.
In brief, a 0.5 McFarland of each bacterial isolate was made. A 0.5 McFarland is a measure of turbidity in a liquid sample that contains approximately 1×10̂^8 CFU/mL. The 0.5 McFarland standard was diluted in cation adjusted Mueller Hinton Broth (CAMHB), and […], of broth were added to a well of a 96-well plate. In addition, 50 μL of CAMHB that contained a desired concentration of antimicrobial were also added to the well for a final volume of 100 and a final concentration of approximately 5×10^4 CFU/well (which equated to approximately 5×10^5 CFU/mL). Each well contained a desired amount of polyamine compound in order to experimentally determine the MIC. Each 96-well plate was incubated at 37° C. for 24 hours. The contents of each well were plated on tryptic soy agar (TSA). TSA plates were incubated for 37° C. for 24 hours after which the number of CFU were counted and used to calculate the CFU/mL that remained after exposure to varying concentrations of compound. This procedure was repeated n=8 times for each concentration of antimicrobial. […]

A. baumannii = experiment: as above; assay type: cell-based, Acinetobacter baumannii
Description: as §1
In brief, a 0.5 McFarland of each bacterial isolate was made. A 0.5 McFarland is a measure of turbidity in a liquid sample that contains approximately 1×10̂^8 CFU/mL. The 0.5 McFarland standard was diluted in cation adjusted Mueller Hinton Broth (CAMHB), and […], of broth were added to a well of a 96-well plate. In addition, 50 μL of CAMHB that contained a desired concentration of antimicrobial were also added to the well for a final volume of 100 and a final concentration of approximately 5×10^4 CFU/well (which equated to approximately 5×10^5 CFU/mL). Each well contained a desired amount of polyamine compound in order to experimentally determine the MIC. Each 96-well plate was incubated at 37° C. for 24 hours. The contents of each well were plated on tryptic soy agar (TSA). TSA plates were incubated for 37° C. for 24 hours after which the number of CFU were counted and used to calculate the CFU/mL that remained after exposure to varying concentrations of compound. This procedure was repeated n=8 times for each concentration of antimicrobial.
A 0.5 McFarland of A. baumannii is made. A 0.5 McFarland is a measure of turbidity in a liquid sample that contains approximately 7.5×10^7 CFU/mL. The 0.5 McFarland standard is diluted in CAMHB and 50 μL of broth is added to a well of a 96-well plate. In addition, 50 μL of CAMHB that contains a desired concentration of antimicrobial is added to the well for a final volume of 100 μL and a final concentration of approximately 5×10^4 CFU/well (which equates to approximately 5×10^5 CFU/mL). Each well contains a desired amount of CZ compound in order to experimentally determine the MIC. Each 96-well plate is incubated at 37° C. for 24 hours. The contents of each well is plated on tryptic soy agar (TSA). TSA plates is incubated at 37° C. for 24 hours after which the number of CFUs is counted and used to calculate the CFU/mL that remain after exposure to varying concentrations of compound. This procedure is repeated n=8 times for each concentration of antimicrobial. […]

A. baumannii biofilm = experiment: MBEC, MBEC Inoculation Tray by Innovotech (to 10^2 CFU/peg in 24 hours); assay type: cell-based, Acinetobacter baumannii; conditions: Table 4
Text: To determine the MBEC of each polyamine compound, the MBEC Inoculation Tray by Innovotech, formerly known as the Calgary biofilm device, was used. Within this device, biofilms grow on the surface of polystyrene pegs, 96 of which are attached to a lid. These pegs are inserted into a flat bottom 96-well plate. In this instance, the MBEC of a molecule was defined as the concentration of compound (in μg/mL) required to reduce 10^5 or 10^6 CFU/peg (biofilm levels varied by isolate) to 10^2 CFU/peg in a 24-hour period.
Following the manufacturer's guidelines, biofilms were grown on the surface of each peg by first making a 0.5 McFarland of each isolate. The 0.5 McFarland was diluted 1:100 in CAMHB. Into each well of a flat bottom 96-well plate, 150 μL of broth were pipetted. The plate was shaken at 100 rpm for 24 hours (P. aeruginosa and A. baumannii) or 48 hours (MRSA). The pegs were then placed into a separate flat bottom 96-well plate for 10 seconds with 200 μL of phosphate buffered saline (PBS) in each well to remove nonadherent cells. The lid was then placed into a 96-well plate that contained varying concentrations of antimicrobial with 200 μL per well. The plate was incubated for 24 hours at 37° C. after which time 100 μL of broth were plated on TSA. TSA plates were incubated 24 hours at 37° C. and the number of CFU counted to calculate the CFU/peg. In this instance, the MBEC was defined as the concentration of antimicrobial required to reduce 10^5 or 10^6 CFU/peg to 10^2 CFU/peg in a 24 hour period.
To determine the MBEC, the MBEC Inoculation Tray by Innovotech, formerly known as the Calgary biofilm device, is used. Within this device, biofilms grow on the surface of polystyrene pegs, 96 of which are attached to a lid. These pegs are inserted into a flat bottom 96-well plate. In this instance, the MBEC of a molecule is defined as the concentration of compound required to reduce approximately 10^6 CFU/peg to approximately 10^2 CFU/peg in a 24-hour period.
Following the manufacturer's guidelines, biofilms are grown on the surface of each peg by first making a 0.5 McFarland of A. baumannii. The 0.5 McFarland is diluted 1:100 in CAMHB broth. Into each well of a flat bottom 96-well plate, 150 μL of broth is pipetted. The plate is shaken at 100 rpm for 24 hours. The pegs are placed into a separate flat bottom 96-well plate for 10 seconds with 200 μL of phosphate buffered saline (PBS) in each well to remove nonadherent cells. The lid is placed into a 96-well plate that contains varying concentrations of antimicrobial with 200 μL of broth per well. The plate is incubated for 24 hours at 37° C. after which time 100 μL of broth is plated on TSA. TSA plates is incubated 24 hours at 37° C. and the number of CFU counted to calculate the CFU/peg.
MBEC data were collected using the MBEC Inoculation Tray by Innovotech. The MBEC was defined in these preliminary results as the concentration of antimicrobial required to reduce 10^5 or 10^6 CFU/peg to 10^2 CFU/peg in a 24-hour period.

[1] = Acinetobacter baumannii, Table 3A
[2] = Acinetobacter baumannii, Table 4

| Compound | MIC (MRSA; Table 3A, first MRSA column) | MIC (MRSA; Table 4) | MIC (A. baumannii; [1]) | MIC (A. baumannii; [2]) | MBEC, A. baumannii (A. baumannii biofilm) | MIC (MRSA; Table 5, class symbols) | MIC, A. baumannii (A. baumannii; Table 3A) | MIC (A. baumannii; Table 4) | MIC, A. baumannii (A. baumannii; Table 4) |
| --- | --- | --- | --- | --- | --- | --- | --- | --- | --- |
| NCCCNCCCNCc1cccc(CNCCCNCCCN)c1 [CZ-25] | 40 mg/L | 40 µg/mL and 110 µM | 150 mg/L | 150 µg/mL and 411 µM | 450 μg/mL and 1234 μM |  |  |  |  |
| NCCCNCCCNCc1cc(CNCCCNCCCN)cc(CNCCCNCCCN)c1 [CZ-52] | 3 mg/L | 3 µg/mL and 6 µM | ~25 mg/L | 400 µg/mL and 800 µM | > 500 μg/mL and 995 μM |  |  |  |  |
| NCCCNCCCNCc1cc(CNCCCNCCCN)cc(-c2ccccc2)c1 [CZ-58] |  | 6 µg/mL and 13.6 µM |  | 30 µg/mL and 68 µM | > 50 μg/mL and > 113 μM | < 50 µM |  |  |  |
| Polymyxin B sulfate [reference compound] |  |  |  |  | 50 μg/mL and 36 μM |  | 2 mg/L | 0.7 µM | 1 mg/L |
